Several values for one entry are separate records, joined by “and”; a condition that tells them apart may be missing. Identical values can stand only once. Inconclusive results and toxic doses are left out. Cut-off read from the data, not from the text of the source: active = T/C of 150% or more; inactive = T/C below 125%.
Tested on: L1210 leukemia ip in BDF1 mice, survival T/C
Experiment: NCI In Vivo Anticancer Drug Screen. Data for tumor model L1210 Leukemia (intraperitoneal) in B6D2F1 (BDF1) mice
Conditions: endpoint: mean survival time, higher = longer survival
Summary of the method: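 Transplantable tumor model; survival measured in treated vs vehicle control mice. Value = treated/control.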

[1] = dose: 100.0 mg/kg/injection, schedule: Q01DX009 (ip), vehicle: Klucel (hydroxypropylcellulose) (HPC)
[2] = dose: 200.0 mg/kg/injection, schedule: Q01DX009 (ip), vehicle: Klucel (hydroxypropylcellulose) (HPC)
[3] = dose: 400.0 mg/kg/injection, schedule: Q01DX009 (ip), vehicle: Klucel (hydroxypropylcellulose) (HPC)
[4] = dose: 100.0 mg/kg/injection, schedule: Q01DX009 (ip), vehicle: saline with Tween-80
[5] = dose: 100.0 mg/kg/injection, schedule: Q01DX009 (ip), vehicle: saline
[6] = dose: 200.0 mg/kg/injection, schedule: Q01DX009 (ip), vehicle: saline
[7] = dose: 100.0 mg/kg/injection, schedule: Q01DX001 (ip), vehicle: saline
[8] = dose: 100.0 mg/kg/injection, schedule: Q04DX003 (ip), vehicle: saline with Tween-80
[9] = dose: 200.0 mg/kg/injection, schedule: Q04DX003 (ip), vehicle: saline with Tween-80
[10] = dose: 100.0 mg/kg/injection, schedule: Q01DX001 (ip), vehicle: carboxymethylcellulose (CMC)
[11] = dose: 200.0 mg/kg/injection, schedule: Q01DX001 (ip), vehicle: carboxymethylcellulose (CMC)
[12] = dose: 400.0 mg/kg/injection, schedule: Q01DX001 (ip), vehicle: carboxymethylcellulose (CMC)
[13] = dose: 100.0 mg/kg/injection, schedule: Q04DX003 (ip), vehicle: Klucel (hydroxypropylcellulose) (HPC)
[14] = dose: 200.0 mg/kg/injection, schedule: Q04DX003 (ip), vehicle: Klucel (hydroxypropylcellulose) (HPC)
[15] = dose: 400.0 mg/kg/injection, schedule: Q04DX003 (ip), vehicle: Klucel (hydroxypropylcellulose) (HPC)
[16] = dose: 50.0 mg/kg/injection, schedule: Q01DX009 (ip), vehicle: Klucel (hydroxypropylcellulose) (HPC)
[17] = dose: 400.0 mg/kg/injection, schedule: Q04DX003 (ip), vehicle: saline with Tween-80

Measured: T/C

CC1CC(NC(=S)NC(=O)c2ccc(Cl)cc2Cl)CC(C)(C)C1 (centres undefined)
inactive: [1] 91 % of control | [2] 96 % of control | [3] 91 % of control

O=C(O)C(CNC(=O)C(F)(F)F)Cc1ccc([N+](=O)[O-])cc1 (centres undefined)
inactive: [4] 120 % of control | [5] 88 % of control | [6] 103 % of control

CC(C=C1CCCCC1)C(=O)O (centres undefined)
inactive: [5] 95 % of control | dose: 100.0 mg/kg/injection, schedule: Q04DX003 (ip), vehicle: saline 102 % of control | [6] 105 % of control | dose: 200.0 mg/kg/injection, schedule: Q04DX003 (ip), vehicle: saline 102 % of control | dose: 400.0 mg/kg/injection, schedule: Q01DX009 (ip), vehicle: saline 97 % of control | dose: 400.0 mg/kg/injection, schedule: Q04DX003 (ip), vehicle: saline 105 % of control

c1ccc(C(Nc2ccccn2)(c2ccccc2)c2ccccc2)cc1
inactive: dose: 100.0 mg/kg/injection, schedule: Q04DX002 (ip), vehicle: saline with Tween-80 104 % of control | dose: 200.0 mg/kg/injection, schedule: Q04DX002 (ip), vehicle: saline with Tween-80 101 % of control | dose: 400.0 mg/kg/injection, schedule: Q04DX002 (ip), vehicle: saline with Tween-80 93 % of control

CC1CN1C(=O)Nc1ccc(Cl)cc1 (centres undefined)
inactive: dose: 25.0 mg/kg/injection, schedule: Q04DX002 (ip), vehicle: other 116 % of control | dose: 50.0 mg/kg/injection, schedule: Q04DX002 (ip), vehicle: other 100 % of control | dose: 100.0 mg/kg/injection, schedule: Q04DX002 (ip), vehicle: other 97 % of control and 91 % of control

Cc1cc(C)c(O)c(CN(C)C)c1.[Cu+2]
inactive: dose: 50.0 mg/kg/injection, schedule: Q01DX001 (ip), vehicle: saline 98 % of control | [7] 98 % of control

CCCCn1nnc2c(NCCc3cnc[nH]3)nc(N)nc21
inactive: dose: 50.0 mg/kg/injection, schedule: Q01DX009 (ip), vehicle: saline with Tween-80 93 % of control | [4] 95 % of control | [8] 89 % of control | [9] 89 % of control

NC(N)=Nc1ccc([N+](=O)[O-])cc1
inactive: dose: 12.5 mg/kg/injection, schedule: Q04DX002 (ip), vehicle: Klucel (hydroxypropylcellulose) (HPC) 103 % of control | dose: 25.0 mg/kg/injection, schedule: Q04DX002 (ip), vehicle: Klucel (hydroxypropylcellulose) (HPC) 98 % of control | dose: 50.0 mg/kg/injection, schedule: Q04DX002 (ip), vehicle: Klucel (hydroxypropylcellulose) (HPC) 103 % of control

CC(=O)OCCC/C(=C\c1ccc(C)cc1)[N+](=O)[O-]
inactive: [10] 88 % of control | [11] 88 % of control | [12] 88 % of control

CC(C)n1ncc2c(N)ncnc21
inactive: dose: 7.5 mg/kg/injection, schedule: Q01DX001 (ip), vehicle: saline 107 % of control | dose: 7.5 mg/kg/injection, schedule: Q04DX003 (ip), vehicle: saline 100 % of control | dose: 15.0 mg/kg/injection, schedule: Q01DX001 (ip), vehicle: saline 100 % of control | dose: 15.0 mg/kg/injection, schedule: Q04DX003 (ip), vehicle: saline 97 % of control | dose: 30.0 mg/kg/injection, schedule: Q01DX001 (ip), vehicle: saline 100 % of control | dose: 30.0 mg/kg/injection, schedule: Q04DX003 (ip), vehicle: saline 98 % of control

COc1ccc(C2C3CCC(C3)C2C(C)=O)cc1 (centres undefined)
inactive: dose: 100.0 mg/kg/injection, schedule: Q01DX001 (ip), vehicle: saline with Tween-80 101 % of control | dose: 200.0 mg/kg/injection, schedule: Q01DX001 (ip), vehicle: saline with Tween-80 90 % of control | dose: 400.0 mg/kg/injection, schedule: Q01DX001 (ip), vehicle: saline with Tween-80 92 % of control

Cc1ccc(Cl)cc1NC(=O)c1ccccc1
inactive: [1] 89 % of control | [13] 95 % of control | [2] 100 % of control | [14] 106 % of control | [3] 94 % of control | [15] 95 % of control

CCC1CC(O)c2c(O)c3c(c(O)c2C1O)C(=O)c1cccc(O)c1C3=O (centres undefined) (tested in a mixture with another compound)
inactive: dose: 0.25 mg/kg/injection, schedule: Q01DX015 (ip), vehicle: carboxymethylcellulose (CMC) 101 % of control | dose: 0.5 mg/kg/injection, schedule: Q01DX015 (ip), vehicle: carboxymethylcellulose (CMC) 101 % of control | dose: 3.12 mg/kg/injection, schedule: Q01DX001 (ip), vehicle: carboxymethylcellulose (CMC) 93 % of control

Cc1ccccc1N=Cc1ccc2c(c1)OCO2
inactive: [16] 106 % of control | [1] 96 % of control | [13] 98 % of control | [2] 106 % of control | [14] 89 % of control | [15] 110 % of control

CN1CCCC1c1ccc(Br)cc1 (centres undefined)
inactive: dose: 100.0 mg/kg/injection, schedule: Q01DX001 (ip), vehicle: acetone 95 % of control

CC1(C(Cl)Cl)C=CC=CC1=O (centres undefined)
inactive: dose: 100.0 mg/kg/injection, schedule: Q01DX001 (ip), vehicle: Klucel (hydroxypropylcellulose) (HPC) 102 % of control | dose: 200.0 mg/kg/injection, schedule: Q01DX001 (ip), vehicle: Klucel (hydroxypropylcellulose) (HPC) 106 % of control | dose: 400.0 mg/kg/injection, schedule: Q01DX001 (ip), vehicle: Klucel (hydroxypropylcellulose) (HPC) 104 % of control

BrC12CC3CC(CC(C3)C1)C2
inactive: [8] 98 % of control | [9] 102 % of control | [17] 98 % of control

CC/C(Cc1ccc(O)cc1)=N\N=C(N)N
inactive: dose: 15.0 mg/kg/injection, schedule: Q01DX Z (ip), vehicle: methylcellulose (MC) 97 % of control | dose: 30.0 mg/kg/injection, schedule: Q01DX Z (ip), vehicle: methylcellulose (MC) 94 % of control | dose: 30.0 mg/kg/injection, schedule: Q01DX Z (oral), vehicle: methylcellulose (MC) 92 % of control | dose: 60.0 mg/kg/injection, schedule: Q01DX Z (ip), vehicle: methylcellulose (MC) 97 % of control | dose: 60.0 mg/kg/injection, schedule: Q01DX Z (oral), vehicle: methylcellulose (MC) 98 % of control | dose: 240.0 mg/kg/injection, schedule: Q01DX Z (oral), vehicle: methylcellulose (MC) 93 % of control

O=C(Nc1ccc(S(=O)(=O)c2ccc(NC(=O)C(F)(F)Cl)cc2)cc1)C(F)(F)Cl
inactive: [10] 104 % of control | [11] 101 % of control | [12] 103 % of control

NC(C(=O)c1ccccc1)c1ccccc1.[Cl][Sn][Cl] (centres undefined)
inactive: dose: 75.0 mg/kg/injection, schedule: Q01DX001 (ip), vehicle: saline 102 % of control | dose: 150.0 mg/kg/injection, schedule: Q01DX001 (ip), vehicle: saline 117 % of control

CC(=O)OCC(COC(C)=O)=C1N=C(c2ccccc2)OC1=O
inactive: [1] 103 % of control | [13] 95 % of control | [2] 106 % of control | [14] 95 % of control | [3] 107 % of control | [15] 97 % of control

CNC(=O)NCCN(C)c1ccccc1
inactive: dose: 100.0 mg/kg/injection, schedule: Q04DX002 (ip), vehicle: Klucel (hydroxypropylcellulose) (HPC) 92 % of control | dose: 200.0 mg/kg/injection, schedule: Q04DX002 (ip), vehicle: Klucel (hydroxypropylcellulose) (HPC) 110 % of control | dose: 400.0 mg/kg/injection, schedule: Q04DX002 (ip), vehicle: Klucel (hydroxypropylcellulose) (HPC) 106 % of control

Cc1c(C=NCCNCCN=Cc2[nH]c(=S)[nH]c(=O)c2C)[nH]c(=S)[nH]c1=O
inactive: dose: 44.0 mg/kg/injection, schedule: Q04DX003 (ip), vehicle: saline with Tween-80 97 % of control and 98 % of control | dose: 66.0 mg/kg/injection, schedule: Q04DX003 (ip), vehicle: saline with Tween-80 106 % of control and 108 % of control | [8] 103 % of control and 110 % of control | dose: 150.0 mg/kg/injection, schedule: Q04DX003 (ip), vehicle: saline with Tween-80 98 % of control and 104 % of control | [9] 110 % of control | [17] 104 % of control

O=C(O)CCN(c1ccccc1)S(=O)(=O)c1ccccc1
inactive: [7] 94 % of control | dose: 200.0 mg/kg/injection, schedule: Q01DX001 (ip), vehicle: saline 94 % of control | dose: 400.0 mg/kg/injection, schedule: Q01DX001 (ip), vehicle: saline 94 % of control

CC(=O)Nc1ccc(NC(=O)c2cccc3ccccc23)cc1
inactive: [16] 90 % of control | [1] 98 % of control and 86 % of control and 90 % of control | [2] 86 % of control | [3] 87 % of control and 89 % of control

— PubChem BioAssay AID248 (DTP/NCI, 2004)
